# Assay results published in patent US10266550B2, “Bacterial topoisomerase I inhibitors with antibacterial activity” (The Florida International University Board of Trustees, priority 2016, dated 2019).
# Like-named read-outs stand apart in the source and are kept apart here.
# Columns and labels:
# [1] = molecular target: E. coli topoisomerase I (Escherichia coli (strain K12), UniProt P06612); assay: biochemical; format: biochemical
# Experimental: Recombinant E. coli topoisomerase I and gyrase expressed in E. coli were purified as described previously.
# E. coli Topoisomerase I Relaxation Activity Inhibition Assay
# The relaxation activity of E. coli topoisomerase I was assayed in a buffer containing 10 mM Tris-HCl, pH 8.0, 50 mM NaCl, 0.1 mg/mL gelatin, and 0.5 mM MgCl2. Half microliter from the appropriate stock solutions of compounds dissolved in the solvent (DMSO) or the solvent alone (control) was mixed with 9.5 μL of the reaction buffer containing 10 ng of enzyme before the addition of 10 μL of reaction buffer containing 200 ng of supercoiled pBAD/Thio plasmid DNA purified by cesium chloride gradient as substrate. Following incubation at 37° C. for 30 min, the reactions were terminated by the addition of 4 μL of a stop buffer (50% glycerol, 50 mM EDTA, and 0.5% (v/v) bromophenol blue), and analyzed by agarose gel electrophoresis. The gels were stained in ethidium bromide and photographed under UV light.
# [2] = test system: E. coli Imp4213 (BAS3023); assay: MIC, microdilution in Mueller-Hinton Broth; format: cell-based; details: Escherichia coli, read-out: Whole cell based antibacterial activity (MIC) E. coli Imp4213 (BAS3023), membrane permeable imp mutant
# [3] = test system: E. coli (MG1655) WT; assay: MIC, microdilution in Mueller-Hinton Broth; details: Escherichia coli, MG1655; wild type; read-out: Whole cell based antibacterial activity (MIC) E. coli (MG1655) WT
# [4] = test system: B. subtilis (ATCC 6633) WT; assay: MIC, microdilution in Mueller-Hinton Broth; details: Bacillus subtilis, ATCC6633, wild type; read-out: Whole cell based antibacterial activity (MIC) B. subtilis (ATCC 6633) WT
# [5] = molecular target: Human topoisomerase I (Homo sapiens (Human), UniProt P11387); assay: Human topoisomerase I relaxation inhibition assay; format: biochemical; details: read-out: Topoisomerase inhibitory activity (IC50) Human topo I (type IB)
# Experimental: Human topoisomerase I relaxation assays were carried out with 0.5 U of enzyme in reaction buffer supplied by the manufacturer. The enzyme was mixed with the indicated concentration of compound dissolved before 200 ng of supercoiled pBAD/Thio plasmid DNA was added in the same buffer, for a final volume of 20 μL. Following incubation at 37° C. for 30 minutes, the reactions were terminated with a buffer containing 5% SDS, 0.25% bromophenol blue, and 25% glycerol, and analyzed by agarose gel electrophoresis.
# Human topoisomerase I and topoisomerase IIα were purchased from TopoGen (Buena vista, CO, USA).
# [6] = test system: Vero cells; assay: Vero cell cytotoxicity assay; format: cell-based; details: Chlorocebus sabaeus, Vero; cytotoxicity
# Experimental: MICs of compounds against M. tuberculosis were determined by a modified microplate Alamar blue assay (MABA). Vero cell cytotoxicity assay was performed as previously described.
# [7] = test system: M. tuberculosis (H37Rv); assay: MIC, microplate Alamar blue assay (MABA); format: cell-based; details: MABA, read-out: Whole cell based antibacterial activity (MIC) M. tuberculosis (H37Rv)
# [8] = Topoisomerase inhibitory activity (IC50) E. coli topo I (type IA), relaxation of supercoiled plasmid DNA
# [9] = experimental, converted from IC50
# Chain of E. coli topoisomerase I (P06612 whole entry, looked up): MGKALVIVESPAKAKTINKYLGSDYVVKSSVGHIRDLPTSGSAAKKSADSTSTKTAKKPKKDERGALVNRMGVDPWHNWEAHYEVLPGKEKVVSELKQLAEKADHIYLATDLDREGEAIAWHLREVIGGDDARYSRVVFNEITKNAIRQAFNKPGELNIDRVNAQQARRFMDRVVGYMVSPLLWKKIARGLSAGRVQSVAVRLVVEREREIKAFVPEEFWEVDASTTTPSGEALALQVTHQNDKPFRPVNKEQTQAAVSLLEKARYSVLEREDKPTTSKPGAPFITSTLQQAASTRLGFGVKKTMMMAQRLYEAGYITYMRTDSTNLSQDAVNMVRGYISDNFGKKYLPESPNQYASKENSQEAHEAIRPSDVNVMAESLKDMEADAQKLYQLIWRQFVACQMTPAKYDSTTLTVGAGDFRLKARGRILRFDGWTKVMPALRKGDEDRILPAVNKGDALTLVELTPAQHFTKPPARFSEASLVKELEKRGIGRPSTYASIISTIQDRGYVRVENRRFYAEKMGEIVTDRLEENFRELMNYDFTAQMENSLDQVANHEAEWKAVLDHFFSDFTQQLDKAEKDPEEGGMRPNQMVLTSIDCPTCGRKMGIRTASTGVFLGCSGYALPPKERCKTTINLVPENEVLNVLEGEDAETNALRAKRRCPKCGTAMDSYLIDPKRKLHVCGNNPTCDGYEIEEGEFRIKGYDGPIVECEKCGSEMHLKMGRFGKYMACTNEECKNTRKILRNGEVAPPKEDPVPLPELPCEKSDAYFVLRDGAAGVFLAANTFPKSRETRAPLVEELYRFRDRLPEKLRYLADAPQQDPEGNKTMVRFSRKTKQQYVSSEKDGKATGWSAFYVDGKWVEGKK
# Chain of Human topoisomerase I (P11387 whole entry): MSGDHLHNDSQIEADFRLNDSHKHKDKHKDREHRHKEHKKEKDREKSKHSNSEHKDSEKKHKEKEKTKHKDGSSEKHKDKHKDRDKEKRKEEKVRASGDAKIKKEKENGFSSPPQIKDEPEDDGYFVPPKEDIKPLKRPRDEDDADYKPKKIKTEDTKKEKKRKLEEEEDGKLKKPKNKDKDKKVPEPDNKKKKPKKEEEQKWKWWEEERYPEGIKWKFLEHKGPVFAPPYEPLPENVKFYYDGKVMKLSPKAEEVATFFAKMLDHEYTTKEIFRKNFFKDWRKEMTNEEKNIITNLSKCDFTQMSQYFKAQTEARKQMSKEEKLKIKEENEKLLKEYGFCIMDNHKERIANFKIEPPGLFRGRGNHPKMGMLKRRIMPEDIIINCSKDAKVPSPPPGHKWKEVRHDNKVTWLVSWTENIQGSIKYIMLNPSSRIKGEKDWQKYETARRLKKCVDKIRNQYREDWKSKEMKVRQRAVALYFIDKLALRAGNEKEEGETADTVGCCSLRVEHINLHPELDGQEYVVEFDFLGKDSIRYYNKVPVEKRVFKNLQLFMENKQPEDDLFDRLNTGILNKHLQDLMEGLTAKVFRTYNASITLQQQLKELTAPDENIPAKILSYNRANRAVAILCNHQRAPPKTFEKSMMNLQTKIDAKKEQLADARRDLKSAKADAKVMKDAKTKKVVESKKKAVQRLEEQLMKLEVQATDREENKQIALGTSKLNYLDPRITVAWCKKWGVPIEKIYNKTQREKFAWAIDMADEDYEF
Compound,"IC50 [1, 8] [µM]","PIC50 (pIC50 = −log IC50) [1, 9]",MIC [2] [µM],MIC [3] [µM],other results
"Nc1ccc2c(c1)Oc1c(NC3CCCCC3)c(F)cc3c(=O)c(C(=O)O)cn-2c13 [Compound 11i, 9-Amino-6-(cyclohexylamino)-5-fluoro-3-oxo-3H-pyrido[3,2,1-kl]phenoxazine-2-carboxylic acid]",3.9 to 15.6,5.41,25,> 200,–
"O=C(O)c1cn2c3c(c(F)c(F)cc3c1=O)Oc1cc([N+](=O)[O-])ccc1-2 [Compound 7a, 5,6-Difluoro-9-nitro-3-oxo-3H-pyrido[3,2,1-kl]phenoxazine-2-carboxylic acid]",–,4.81,0.78,200,–
"CC(=O)c1ccc2c(c1)Oc1c(F)c(F)cc3c(=O)c(C(=O)O)cn-2c13 [Compound 7d, 9-A cetyl-5,6-difluoro-3-oxo-3H-pyrido[3,2,1-kl]phenoxazine-2-carboxylic acid]",–,4.81,–,> 200,MIC [4]: > 200 µM
"CC1CCN(c2c(F)cc3c(=O)c(C(=O)O)cn4c3c2Oc2cc(N)ccc2-4)CC1 [Compound 11c, 9-Amino-5-fluoro-6-(4-methylpiperidin-1-yl)-3-oxo-3H-pyrido[3,2,1-kl]phenoxazine-2-carboxylic acid]",3.9 to 15.6,5.41,3.12,> 200,–
"Nc1ccc2c(c1)Oc1c(N3CCNCC3)c(F)cc3c(=O)c(C(=O)O)cn-2c13 [Compound 11b, 9-Amino-5-fluoro-3-oxo-6-(piperazin-1-yl)-3H-pyrido[3,2,1-kl]phenoxazine-2-carboxylic acid]",0.24 to 0.97,6.62,0.39,> 200,IC50 [5]: 7.8 µM; IC50 [6]: > 126 µM
"CCOC(=O)c1cn2c3c(c(N4CCN(C)CC4)c(F)cc3c1=O)Oc1cc([N+](=O)[O-])ccc1-2 [Compound 9, Ethyl-5-fluoro-6-(4-methylpiperazin-1-yl)-9-nitro-3-oxo-3H-pyrido[3,2,1-kl]phenoxazine-2-carboxylate]",–,5.71,25,> 200,–
"O=C(O)c1cn2c3c(c(F)c(F)cc3c1=O)Oc1cc(C(F)(F)F)ccc1-2 [Compound 7c, 5,6-Difluoro-3-oxo-9-(trifluoromethyl)-3H-pyrido[3,2,1-kl]phenoxazine-2-carboxylic acid]",–,–,–,> 200,"activity against topoisomerase I when tested at 125 μM ([1]; 125 μM): inactive; IC50 ([1]; IC50 (μM) used for CoMFA, Table 3, E. coli topoisomerase I, single values set for ranges and bounds): 250 µM; IC50 ([1]; PIC50 (pIC50 = −log IC50), experimental, converted from IC50): 245 µM; IC50 ([1]; relaxation of supercoiled plasmid DNA, read-out: Topoisomerase inhibitory activity (IC50) E. coli topo I (type IA)): > 125 µM"
"Nc1ccc2c(c1)Oc1c(NC3CCCC3)c(F)cc3c(=O)c(C(=O)O)cn-2c13 [Compound 11j, 9-Amino-6-(cyclopentylamino)-5-fluoro-3-oxo-3H-pyrido[3,2,1-kl]phenoxazine-2-carboxylic acid]",3.9 to 15.6,5.41,25,> 200,–
"CCOC(=O)c1cn2c3c(c(F)c(F)cc3c1=O)Oc1cc(C#N)ccc1-2 [Compound 6b, Ethyl 9-cyano-5,6-difluoro-3-oxo-3H-pyrido[3,2,1-kl]phenoxazine-2-carboxylate]",–,4.51,–,> 200,–
"Nc1ccc2c(c1)Oc1c(N3CC[C@@H](N)C3)c(F)cc3c(=O)c(C(=O)O)cn-2c13 [Compound 17b, (R)-9-amino-6-(3-aminopyrrolidin-1-yl)-5-fluoro-3-oxo-3H-pyrido[3,2,1-kl]phenoxazine-2-carboxylic acid]",–,6.14,6.25,> 200,"IC50 [6]: > 63.1 µM; MIC [7]: >63.1 µM; MIC ([7]; Mycobacterium tuberculosis, H37RV): > 63.1 µM"
"CCOC(=O)c1cn2c3c(c(F)c(F)cc3c1=O)Oc1cc([N+](=O)[O-])ccc1-2 [Compound 6a, Ethyl 5,6-difluoro-9-nitro-3-oxo-3H-pyrido[3,2,1-kl]phenoxazine-2-carboxylate]",–,4.81,50,> 200,–
